# Results taken from patent US20090069300A1, “ISOQUINOLINYL AND ISOINDOLINYL DERIVATIVES AS HISTAMINE-3 ANTAGONISTS” (Wyeth, priority 2007, published 2009).
# Where a name gives a salt, the structure may show the parent alone.
# Legend:
# [1] = biological target: T1, Human Histamine H3 Receptor (Homo sapiens, UniProt Q9Y5N1); assay: Methyl histamine binding in human histamine H3 receptor cell line; settings: read-out: H3 Binding Ki
# T1 construct: expressed in transfected cells; host or cells: HEK293T (stably transfected; membranes prepared from the cells)
# T1 sequence (Q9Y5N1 whole entry): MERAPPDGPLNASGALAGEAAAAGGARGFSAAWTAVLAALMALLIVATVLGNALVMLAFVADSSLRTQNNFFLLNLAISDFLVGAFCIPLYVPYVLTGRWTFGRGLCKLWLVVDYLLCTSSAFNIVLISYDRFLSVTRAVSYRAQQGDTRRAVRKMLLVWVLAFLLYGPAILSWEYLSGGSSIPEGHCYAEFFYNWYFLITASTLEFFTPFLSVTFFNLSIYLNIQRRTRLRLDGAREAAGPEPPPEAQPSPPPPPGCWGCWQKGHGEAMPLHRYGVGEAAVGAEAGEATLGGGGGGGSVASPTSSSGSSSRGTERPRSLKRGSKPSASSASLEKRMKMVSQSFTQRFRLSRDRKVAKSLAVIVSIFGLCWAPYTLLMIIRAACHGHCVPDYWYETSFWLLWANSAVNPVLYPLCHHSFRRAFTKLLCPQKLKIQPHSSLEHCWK
# Outline: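 Radioligand binding on membranes (10 μg/well) from a human H3 receptor cell line, 1 nM radioligand, 1 h at 30° C. in 50 mM Tris pH 7.5. Nonspecific binding defined with 10 uM clobenpropit, followed by filtration and scintillation counting. IC50 from four-parameter fit, converted to Ki by Cheng-Prusoff.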
SMILES,melting point [°C],Ki [1] [nM]
"C[C@@H]1CCCN1CCN1CCc2cc(-c3ccc4c(c3)CCNC4=O)ccc2C1=O (as salt: hydrochloride) [Example 157, (R)-2-(2-(2-methylpyrrolidin-1-yl)ethyl)-3,3′,4,4′-tetrahydro-6,6′-biisoquinoline-1,1′(2H,2′H-dione hydrochloride]",272 to 273.5,–
"CN1CCc2cc(-c3ccc4c(c3)CCN(CCN3CCCC3)C4=O)ccc2C1=O (as salt: hydrochloride) [Example 158, 2-methyl-2′-(2-(pyrrolidin-1-yl)ethyl)-3,3′,4,4′-tetrahydro-6,6′-biisoquinoline-1,1′(2H,2′H)-dione hydrochloride]",225 to 226,–
"C[C@@H]1CCCN1CCN1CCc2cc(N3CCCCC3)ccc2C1=O (as salt: hydrochloride) [Example 161, 2-{2-[(2R)-2-methylpyrrolidin-1-yl]ethyl}-6-piperidin-1-yl-3,4-dihydroisoquinolin-1(2H)-one]",> 225,–
"O=C1c2ccc(-n3ncc4ccccc43)cc2CCN1CCN1CCCC1 [Example 36, 6-(1H-indazol-1-yl)-2-(2-(pyrrolidin-1-yl)ethyl)-3,4-dihydroiso-quinolin-1(2H)-one hydrochlroride]",185 to 186,< 10
"O=C(NC1CCCC1)c1ccc(-c2ccc3c(c2)CCN(CCN2CCCC2)C3=O)cc1 [Example 55, N-cyclopentyl-4-[1-oxo-2-(2-pyrrolidin-1-ylethyl)-1,2,3,4-tetrahydroisoquinolin-6-yl]benzamide]",258 to 260,< 10
"CNC(=O)c1ccc(Oc2ccc3c(c2)CCN(CCN2CCCC2)C3=O)cc1 [Example 92, N-methyl-4-{[1-oxo-2-(2-pyrrolidin-1-ylethyl)-1,2,3,4-tetrahydroisoquinolin-6-yl]oxy}benzamide]",235 to 236,10.1 to 25
"CCNC(=O)c1ccc(Oc2ccc3c(c2)CCN(CCN2CCCC2)C3=O)cc1 [Example 93, N-ethyl-4-{[1-oxo-2-(2-pyrrolidin-1-ylethyl)-1,2,3,4-tetrahydroisoquinolin-6-yl]oxy}benzamide]",215 to 216,< 10
"CC(C)NC(=O)c1ccc(Oc2ccc3c(c2)CCN(CCN2CCCC2)C3=O)cc1 [Example 94, N-isopropyl-4-{[1-oxo-2-(2-pyrrolidin-1-ylethyl)-1,2,3,4-tetrahydroisoquinolin-6-yl]oxy}benzamide]",223 to 224,< 10
"O=C(NC1CCC1)c1ccc(Oc2ccc3c(c2)CCN(CCN2CCCC2)C3=O)cc1 [Example 97, N-cyclobutyl-4-{[1-oxo-2-(2-pyrrolidin-1-ylethyl)-1,2,3,4-tetrahydroisoquinolin-6-yl]oxy}benzamide]",236 to 237,10.1 to 25
"O=C(NC1CC1)c1ccc(Oc2ccc3c(c2)CCN(CCN2CCCC2)C3=O)cc1 [Example 99, N-cyclopropyl-4-{[1-oxo-2-(2-pyrrolidin-1-ylethyl)-1,2,3,4-tetrahydroisoquinolin-6-yl]oxy}benzamid;e]",227 to 228,< 10
"O=C(c1ccc(-c2ccc3c(c2)CCN(CCN2CCCC2)C3=O)cc1)C1CC1 [Example 103, 6-[4-(cyclopropylcarbonyl)phenyl]-2-(2-pyrrolidin-1-ylethyl)-3,4-dihydro-isoquinolin-1(2H)-one]",244 to 246,< 10
"C[C@@H]1CCCN1CCN1Cc2cc(-c3ccc(C#N)cc3)ccc2C1=O [Example 117, (R)-4-(2-(2-(2-methylpyrrolidin-1-yl)ethyl)-1-oxoisoindolin-5-yl)benzonitrile]",214 to 216,10.1 to 25
"C[C@@H]1CCCN1CCN1Cc2cc(-c3ccc(C(=O)N4CCCC4)cc3)ccc2C1=O [Example 119, 2-{2-[(2R)-2-methylpyrrolidin-1-yl]ethyl}-5-[4-(pyrrolidin-1-ylcarbonyl)phenyl]-isoindolin-1-one]",184 to 185,> 100
"O=C(c1ccc(-c2ccc3c(c2)CCN(CCN2CCCC2)C3=O)cc1F)N1CCCC1 [Example 133, 6-[3-fluoro-4-(pyrrolidin-1-ylcarbonyl)phenyl]-2-(2-pyrrolidin-1-ylethyl)-3,4-dihydroisoquinolin-1(2H)-one]",231 to 232,< 10
"CS(=O)(=O)c1ccc(-c2ccc3c(c2)CCN(CCN2CCCC2)C3=O)cc1 [Example 135, 6-[4-(methylsulfonyl)phenyl]-2-(2-pyrrolidin-1-ylethyl)-3,4-dihydroisoquinolin-1(2H)-one]",153 to 155,< 10

# Other lines, results leading:
melting point [°C],Ki [1] [nM],SMILES
245 to 246,–,"O=C1c2ccc(N3CCCCC3)cc2CCN1CCN1CCCC1 (as salt: hydrochloride) [Example 162, 6-(piperidin-1-yl)-2-(2-(pyrrolidin-1-yl)ethyl)-3,4-dihydroisoquinolin-1(2H)-one]"
245 to 246,–,"O=C1c2ccc(N3CCCCC3)cc2CCN1CCN1CCCCC1 (as salt: hydrochloride) [Example 163, 6-(piperidin-1-yl)-2-(2-(piperidin-1-yl)ethyl)-3,4-dihydroisoquinolin-1(2H)-one]"
229 to 231,–,"O=C1c2ccc(N3CCCCC3)cc2CCN1CCN1CCCCCC1 (as salt: hydrochloride) [Example 164, 2-(2-(azepan-1-yl)ethyl)-6-(piperidin-1-yl)-3,4-dihydroisoquinolin-1(2H)-one]"
182 to 183,–,"C[C@@H]1CCCN1CCN1CCc2cc(N3CCCC3)ccc2C1=O (as salt: hydrochloride) [Example 165, (R)-2-(2-(2-methylpyrrolidin-1-yl)ethyl)-6-(pyrrolidin-1-yl)-3,4-dihydroisoquinolin-1(2H)-one]"
182 to 184,–,"C[C@@H]1CCCN1CCN1CCc2cc(N3CCCCCC3)ccc2C1=O (as salt: hydrochloride) [Example 166, (R)-6-(azepan-1-yl)-2-(2-(2-methylpyrrolidin-1-yl)ethyl)-3,4-dihydroisoquinolin-1(2H)-one]"
262 to 264,–,"NC(=O)c1ccc(-c2ccc3c(c2)CCN(CCN2CCCC2)C3)cc1 (as salt: hydrochloride) [Example 180, 4-[2-(2-pyrrolidin-1-ylethyl)-1,2,3,4-tetrahydroisoquinolin-6-yl]benzamide]"
280 to 281,–,"CNC(=O)c1ccc(-c2ccc3c(c2)CCN(CCN2CCCC2)C3)cc1 (as salt: hydrochloride) [Example 181, N-methyl-4-[2-(2-pyrrolidin-1-ylethyl)-1,2,3,4-tetrahydroisoquinolin-6-yl]benzamide]"
266 to 268,–,"CCNC(=O)c1ccc(-c2ccc3c(c2)CCN(CCN2CCCC2)C3)cc1 (as salt: hydrochloride) [Example 182, N-ethyl-4-[2-(2-pyrrolidin-1-ylethyl)-1,2,3,4-tetrahydroisoquinolin-6-yl]benzamide]"
248 to 250,–,"CN(C)C(=O)c1ccc(-c2ccc3c(c2)CCN(CCN2CCCC2)C3)cc1 (as salt: hydrochloride) [Example 183, N,N-dimethyl-4-[2-(2-pyrrolidin-1-ylethyl)-1,2,3,4-tetrahydroisoquinolin-6-yl]benzamide]"
241 to 242,–,"O=C(c1ccc(-c2ccc3c(c2)CCN(CCN2CCCC2)C3)cc1)N1CCCC1 (as salt: hydrochloride) [Example 184, 6-[4-(pyrrolidin-1-ylcarbonyl)phenyl]-2-(2-pyrrolidin-1-ylethyl)-1,2,3,4-tetrahydroisoquinoline]"
270 to 272,–,"O=C(c1ccc(-c2ccc3c(c2)CCN(CCN2CCCC2)C3)cc1)N1CCCCC1 (as salt: hydrochloride) [Example 185, 6-[4-(piperidin-1-ylcarbonyl)phenyl]-2-(2-pyrrolidin-1-ylethyl)-1,2,3,4-tetrahydroisoquinoline]"
260 to 261,–,"O=C(c1ccc(-c2ccc3c(c2)CCN(CCN2CCCC2)C3)cc1)N1CCOCC1 (as salt: hydrochloride) [Example 186, 6-[4-(morpholin-4-ylcarbonyl)phenyl]-2-(2-pyrrolidin-1-ylethyl)-1,2,3,4-tetrahydroisoquinoline]"
> 230,> 100,"FC(F)(F)Oc1ccc(-c2ccc3c(c2)CCN(CCN2CCCC2)C3)cc1 [Example 171, 2-(2-pyrrolidin-1-ylethyl)-6-[4-(trifluoromethoxy)phenyl]-1,2,3,4-tetrahydroisoquinoline]"
232 to 234,25.1 to 50,"C[C@@H]1CCCN1CCN1CCc2cc(-c3ccc(F)cc3)ccc2C1 [Example 172, 6-(4-fluorophenyl)-2-{2-[(2R)-2-methylpyrrolidin-1-yl]ethyl}-1,2,3,4-tetrahydroisoquinoline]"
272 to 274,50.1 to 100,"Fc1cccc(-c2ccc3c(c2)CCN(CCN2CCCC2)C3)c1 [Example 173, 6-(3-fluorophenyl)-2-(2-pyrrolidin-1-ylethyl)-1,2,3,4-tetrahydroisoquinoline]"
272 to 274,50.1 to 100,"Fc1ccc(-c2ccc3c(c2)CCN(CCN2CCCCC2)C3)cc1 [Example 174, 6-(4-fluorophenyl)-2-(2-piperidin-1-ylethyl)-1,2,3,4-tetrahydroisoquinoline]"
258 to 260,> 100,"Fc1ccc(-c2ccc3c(c2)CCN(CCN2CCCCCC2)C3)cc1 [Example 175, 2-(2-azepan-1-ylethyl)-6-(4-fluorophenyl)-1,2,3,4-tetrahydroisoquinoline]"
250 to 251,–,Fc1ccc(-c2ccc3c(c2)CCN(CCN2CCCC2)C3)cc1 [Example 177]
268 to 270,–,c1ccc(-c2ccc3c(c2)CCN(CCN2CCCC2)C3)cc1 [Example 178]
